Ends that are not written are not given here.
Assays:
[1] = test system: peritoneal macrophages; test: Cytokine and chemokine secretion of isolated peritoneal macrophages after CLP; settings: cells isolated 24 h after CLP, cultured 24 h; vs control, p>0.05
Protocol: The control group received saline as vehicle, the study group was substituted with 4 μg/kg MALP-2 i.p simultaneously to cecal ligation and puncture (CLP). All animals underwent CLP for induction of polymicrobial sepsis.
Peritoneal macrophages were isolated by lavage of the peritoneal cavity with 3×5 ml PBS containing 10 IU/ml heparin (Ratiopharm) 24 hours after CLP. Thereafter, cells were washed once with PBS and centrifuged at 400×g for 15 minutes at 4° C. The pellet was resuspended in 5 ml RPMI (Biochrom) containing 10% FCS and antibiotics (50 U/ml penicillin, 50 μg/ml streptomycin, Invitrogen; 2.5 μg/ml Amphotericin B, Biochrom). 106 cells were plated in a 24-well plate and incubated for 24 hours at 37° C., 95% humidity, and 5% CO2. At the end of the incubation period, the supernatants were removed and stored at −80° C. until analysis was performed.
Cytokine and chemokines in plasma and cell culture supernatant were measured with Multiplex and Simplex Kits according to manufacturer's instructions (BenderMed Systems, Vienna, Austria).

[2] = test system: CLP-induced polymicrobial sepsis; test: Mortality after cecal ligation and puncture (CLP) polymicrobial sepsis; format: in vivo, C57BL/6-mice; settings: over 96 h
From the text: Maintenance and use of the animals were in accord with the German Animal Welfare Legislation. All experiments were approved by the local institutional animal care and research advisory committee and permitted by the local government of Lower Saxony (Germany). 47 male C57BL/6-mice (Charles River, Germany) with a weight of 20±3 g were used for the study. All animals were handled at room temperature for 14 days before treatment. Animals were maintained under standardized conditions with a controlled environment at 21±2° C., relative humidity of 50% and artificial light (14 hours light, 10 hours dark). They received a commercial pellet diet (altromin 1317) and water ad libitum. Analgetic treatment was performed in all animals (200 mg/kg body weight (BW) metamizol-sodium, Novalgin®, Hoechst, Unterschleiβheim, Germany) throughout the study.
All surgical procedures were performed after deeply anaesthetizing the animals with isoflurane. The mice were warmed to 36° C. using infrared warming lamps after having finished the surgical procedures. All mice received once daily subcutaneous injections of 1 ml sterile ringer's lactate for fluid replacement.
The surgical procedure was as follows: the cecum was exposed after a midline laparotomy and ligated distal to the ileocecal valve. Subsequently, the cecum was punctured twice using a 21 G needle and was returned to the abdominal cavity. […]

[3] = test system: sepsis-related mortality; settings: pretreatment four days before sepsis induction; cited from earlier work
[4] = test system: CLP-induced polymicrobial sepsis; test: Activity score after CLP; format: in vivo, C57BL/6-mice; settings: 4 μg/kg i.p. simultaneously to CLP, vs control
Protocol: The surgical procedure was as follows: the cecum was exposed after a midline laparotomy and ligated distal to the ileocecal valve. Subsequently, the cecum was punctured twice using a 21 G needle and was returned to the abdominal cavity. The model also includes the protrusion of contents of the cecum to assure the presence of bacteria in the peritoneum. The closure of the abdomen was performed with double layer sutures. Data were obtained 4, 24 and 96 hours after surgery. Clinical data concerning mortality and activity were obtained once daily until 96 hours after instrumentation.
As a measure for clinical status, activity of mice was analyzed by using a previously established scoring system, see table 1. Within this score, the spontaneous activity, spontaneous food intake and response to exogenous stimuli was analyzed. The scoring of each animal (from 1=moribund to 6=very active) was independently performed in a blinded fashion by two persons and the mean of both values was recorded.

[5] = test system: sepsis, septic shock and MODS; settings: patients with sepsis; cited from earlier work

Substance | IL-6, IL-10, TNF-α, MCP-1, MCP-3 or GM-CSF of peritoneal macrophages [1] | total mortality ([2]; 4 μg/kg BW i.p. simultaneously to CLP, control 62.5%, p=0.031) [%] | mortality ([2]; MALP-2 i.p. 6 hours following CLP, p=0.047 vs vehicle) [%] | protection against sepsis-related mortality [3] | activity rates (activity score, table 1) ([4]; 24 to 72 hours following CLP, p<0.05) | activity rates (activity score, table 1) ([4]; after 96 hours) | reduction of death of affected patients [5] [%]
Macrophage-activating lipopeptide-2 (GNNDESNISFKEK; not fully specified) [MALP-2] | No differences | 12.5 | 22.2 | partial protection | increased | comparable between both groups | –
activated protein C | – | – | – | – | – | – | 6.1
